Results taken from publication PMC12017579, “Phase separation of the PRPP amidotransferase into dynamic condensates promotes de novo purine synthesis in yeast” (PLOS Biology, 2025).
Where a chain is given by its changes, count along the chain named.

What was measured:
Assay in all cases: in vitro condensation assay, fluorescence microscopy of Ade4-mNG particles
Type in all cases: binding
[1] = biological target: T1, Ade4-mNG (yeast PPAT Ade4) (Saccharomyces cerevisiae, UniProt P04046); conditions: inhibits self-assembly, 0.2 µM protein, 10% PEG8K
T1 construct: full length, C-terminal mNeonGreen and Strep-tag II kept; purified from budding yeast cells
T1 sequence (P04046 2-510): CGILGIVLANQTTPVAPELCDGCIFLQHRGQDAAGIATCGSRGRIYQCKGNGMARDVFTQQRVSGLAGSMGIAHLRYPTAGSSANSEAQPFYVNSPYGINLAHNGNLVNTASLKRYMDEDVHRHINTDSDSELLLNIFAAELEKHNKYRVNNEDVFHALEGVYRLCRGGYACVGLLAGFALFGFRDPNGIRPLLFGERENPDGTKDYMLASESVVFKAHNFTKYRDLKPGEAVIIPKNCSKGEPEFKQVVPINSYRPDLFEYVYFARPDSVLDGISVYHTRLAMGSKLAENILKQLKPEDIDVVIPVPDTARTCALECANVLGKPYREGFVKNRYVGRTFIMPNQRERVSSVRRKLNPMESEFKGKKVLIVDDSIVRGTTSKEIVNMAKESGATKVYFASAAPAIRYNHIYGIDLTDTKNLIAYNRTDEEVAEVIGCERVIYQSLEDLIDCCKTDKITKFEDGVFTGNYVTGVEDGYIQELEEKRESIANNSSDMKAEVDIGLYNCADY

Ade4∆IDR-mNG = biological target: T2, Ade4∆IDR-mNG (Saccharomyces cerevisiae, UniProt P04046); conditions: inhibits self-assembly; 500 µM AMP, 0.2 µM protein, 10% PEG8K
T2 construct: C-terminal mNeonGreen and Strep-tag II kept; purified from budding yeast
T2 sequence (P04046 2-480 limits assumed): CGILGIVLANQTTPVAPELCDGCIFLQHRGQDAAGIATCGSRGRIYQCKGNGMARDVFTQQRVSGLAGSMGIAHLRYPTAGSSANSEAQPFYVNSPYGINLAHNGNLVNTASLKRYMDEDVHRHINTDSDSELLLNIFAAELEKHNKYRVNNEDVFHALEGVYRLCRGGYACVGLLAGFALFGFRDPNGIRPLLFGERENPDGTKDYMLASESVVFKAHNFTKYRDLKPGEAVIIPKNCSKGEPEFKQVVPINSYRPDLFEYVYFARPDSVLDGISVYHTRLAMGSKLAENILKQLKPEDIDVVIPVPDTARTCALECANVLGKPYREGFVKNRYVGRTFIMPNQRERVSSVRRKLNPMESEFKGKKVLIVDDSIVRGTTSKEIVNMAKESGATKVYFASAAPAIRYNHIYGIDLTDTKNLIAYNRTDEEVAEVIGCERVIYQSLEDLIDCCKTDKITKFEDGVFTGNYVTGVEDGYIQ

[2] = biological target: T3, Ade4-mNG (yeast PPAT Ade4) (Saccharomyces cerevisiae, UniProt P04046, D373A/D374A); conditions: inhibits self-assembly, less than wild type; 1 mM AMP, 0.2 µM protein, 10% PEG8K
T3 construct: full length, C-terminal mNeonGreen and Strep-tag II kept; purified from budding yeast cells
T3 sequence (P04046 2-510 D373A/D374A): T1 sequence (P04046 2-510) with D372A, D373A

## Nc1ncnc2c1ncn2[C@@H]1O[C@H](COP(=O)(O)OP(=O)(O)OP(=O)(O)O)[C@@H](O)[C@H]1O [ATP]
[1]; 5 mM MgCl2, pH 7.5
  in vitro condensation assay, fluorescence microscopy of Ade4-mNG particles: In the presence of GMP, AMP, ADP, and ATP, the condensation of Ade4-mNG was significantly reduced

## Nc1nc2c(ncn2[C@@H]2O[C@H](COP(=O)(O)O)[C@@H](O)[C@H]2O)c(=O)[nH]1 [GMP]
[1]; 5 mM MgCl2, pH 7.5
  in vitro condensation assay, fluorescence microscopy of Ade4-mNG particles: In the presence of GMP, AMP, ADP, and ATP, the condensation of Ade4-mNG was significantly reduced

## Nc1ncnc2c1ncn2[C@@H]1O[C@H](CSCC[C@H](N)C(=O)O)[C@@H](O)[C@H]1O [SAH]
[1]; weaker than AMP, 500 µM SAH, 0.5% DMSO
  in vitro condensation assay, fluorescence microscopy of Ade4-mNG particles: exerted approximately one-third the inhibitory effect of AMP

## Nc1ncnc2c1ncn2[C@@H]1O[C@H](COP(=O)(O)OP(=O)(O)O)[C@@H](O)[C@H]1O [ADP]
[1]; 5 mM MgCl2, pH 7.5
  in vitro condensation assay, fluorescence microscopy of Ade4-mNG particles: In the presence of GMP, AMP, ADP, and ATP, the condensation of Ade4-mNG was significantly reduced

## Nc1ncnc2c1ncn2[C@@H]1O[C@H](COP(=O)(O)O)[C@@H](O)[C@H]1O [AMP]
[1]; 5 mM MgCl2, pH 7.5, counteracted by PRPP
  in vitro condensation assay, fluorescence microscopy of Ade4-mNG particles: In the presence of GMP, AMP, ADP, and ATP, the condensation of Ade4-mNG was significantly reduced
Ade4∆IDR-mNG
  in vitro condensation assay, fluorescence microscopy of Ade4-mNG particles: AMP also suppressed the condensation of Ade4∆IDR-mNG
[2]
  in vitro condensation assay, fluorescence microscopy of Ade4-mNG particles: AMP inhibited the assembly of Ade4-DA-mNG condensates, albeit less effectively than that of Ade4-mNG condensates
